Reference: patent US12377175B2, “Trifunctional constructs with tunable pharmacokinetics useful in imaging and anti-tumor therapies” (Cornell University, priority 2016, dated 2025)

Tested on: LNCaP xenograft tumor-bearing mice
Experiment: Biodistribution of 225Ac-macropa-RPS-070 in LNCaP xenograft mice
Format: in vivo, mouse
Settings: 4-96 h; no accumulation of 225Ac in liver, spleen, bone
Experimental: Cell Culture. […] Cell culture supplies were from Invitrogen unless otherwise noted.
Inoculation of Mice with Xenografts. All animal studies were approved by the Institutional Animal Care and Use Committee of Weill Cornell Medicine and were undertaken in accordance with the guidelines set forth by the USPHS Policy on Humane Care and Use of Laboratory Animals. Animals were housed under standard conditions in approved facilities with 12 h light/dark cycles. Food and water was provided ad libitum throughout the course of the studies. Hairless male nu/nu mice were purchased from the Jackson Laboratory. For inoculation in mice, LNCaP cells were suspended at 4×10^7 cells/mL in a 1:1 mixture of PBS:Matrigel (BD Biosciences). Each mouse was injected in the left flank with 0.25 mL of the cell suspension. Biodistributions were conducted when tumors were in the range 100-400 mm^3.
Biodistribution of […] in LNCaP xenograft mice. Fifteen LNCaP xenograft tumor-bearing mice (5 per time point) were injected intravenously with a bolus injection of 85-95 kBq and 100 ng ([…]) of each ligand. The mice were sacrificed by cervical dislocation at 4, 24 and 96 h post injection. A blood sample was removed, and a full biodistribution study was conducted on the following organs (with contents): heart, lungs, liver, small intestine, large intestine, stomach, spleen, pancreas, kidneys, muscle, bone, and tumor. Tissues were weighed and counted on a 2470 Wizard Automatic Gamma Counter (Perkin Elmer). 1% ID/mL samples were counted prior to and following each set of tissue samples to enable decay correction to be undertaken. Counts were corrected for decay and for activity injected, and tissue uptake was expressed as percent injected dose per gram (% ID/g). Standard error measurement was calculated for each data point.

Q: How did the “retention of 225Ac by the construct in vivo” value turn out when `O=C(O)CC[C@H](NC(=O)N[C@@H](CCCCNC(=O)Nc1cccc(-c2cn(CCOCCOCCOCCOCCOCCOCCC(=O)N[C@@H](CCCCNC(=S)Nc3cc(CN4CCOCCOCCN(Cc5cccc(C(=O)O)n5)CCOCCOCC4)nc(C(=O)O)c3)C(=O)N[C@@H](CCCCNC(=O)Cc3ccc(I)cc3)C(=O)O)nn2)c1)C(=O)O)C(=O)O` [macropa-RPS-070, (((S)-1-Carboxy-5-(3-(3-(1-((23S,26S)-26-carboxy-23-(4-(3-(2-carboxy-6-((16-((6-carboxypyridin-2-yl)methyl)-1,4,10,13-tetraoxa-7,16-diazacyclooctadecan-7-yl)methyl)pyridin-4-yl)thioureido)butyl)-33-(4-iodophenyl)-21,24,32-trioxo-3,6,9,12,15,18-hexaoxa-22,25,31-triazatritriacontyl)-1H-1,2,3-triazol-4-yl)phenyl)ureido)pentyl)carbamoyl)-L-glutamic acid] was run?
A: stably retain
